From US20250388857A1, “USE OF TRIBUTYRIN AS AN ADDITIVE FOR EMBRYONIC DEVELOPMENT CULTURE MEDIUM IN VITRO” (Institute of Animal Sciences and Veterinary Medicine, Hubei …, priority 2024, published 2025) come the findings set out here.

Assay [1] deals with mouse embryos. Put plainly: detection of reactive oxygen species (ROS) in mouse embryos, DCFH-DA fluorescence. It counts as cell-based. As to conditions: 100 μmol/L tributyrin, 2-cell stage, vs control. As for the experimental part:
(§1) Therefore, exemplically, experiments are carried out in the experimental group of this example using culture medium added 100 μmol/L of tributyrin, specifically, the experiments are divided into the following two groups:
(§2) Experimental group: the development culture medium in vitro of mouse embryos containing 100 μmol/L of tributyrin was added to the special dish for embryo culture, 2 droplets were made, 50 μL of culture medium per droplets, covered with paraffin oil, pre-balanced in an incubator with 37° C., 5% CO2 saturated humidity for more than 6 hours, and the embryos were placed in well-balanced culture droplets, with 25˜35 pieces per droplets.
Referring to the steps of development culture in vitro of example 2, development culture in vitro was carried out on the above two treatment groups; according to the instructions of the reactive oxygen species detection kit (Biyuntian, S0033S), DCFH-DA was diluted to a working solution concentration of 5 µM with KSOM culture medium. […] Image J software was used to analyze the average fluorescence intensity of ROS in embryos.

Assay [2] concerns mouse embryos. Put plainly: detection of mitochondrial membrane potential, JC-1 staining. Format: cell-based. The note with it: 100 μmol/L tributyrin, 2-cell stage, vs control. As for the experimental part: as §1, §2
Referring to the steps of development culture in vitro of example 2, development culture in vitro was carried out on the above two treatment groups; according to the instructions of the mitochondrial membrane potential J C-1 detection kit (Biyuntian, C2006), the embryos of the control group and the experimental group at the 2-cell stage were transferred into 1×J C-1 staining working solution, incubated in the dark at 37° C., 5% CO2 incubator for 30 min, then wash the embryos with 1×J C-1 staining buffer, it was placed under an inverted fluorescence microscope for observation and photography. Image J software was used to analyze the average fluorescence intensity of J C-1 red and J C-1 green in embryos.

Assay [3] has as its system mouse embryos. Put plainly: development in vitro of mouse embryos (rate of 2-cell, 4-cell, blastocyst). It counts as cell-based. As to conditions: for The rate of 2-cell: 24 h culture; for The rate of 4-cell: 48 h culture. On the procedure: Specifically, at 4:00 p.m. on the first day, 10 IU pregnant horse serum gonadotropin was injected intraperitoneally into Kunming female mouse with SPF level for 6˜9 weeks, and 8 IU chorionic gonadotropin was injected after 48 hours. At 9:00 the next day, the 9˜12-week male mouse was killed by cervical dislocation, and the tail of the epididymis next to the vas deferens was taken, after cutting with ophthalmic scissors in 200 μL of insemination droplet (Sigma, MR-070-D) is to release sperm for 60 minutes. The insemination droplet need to be pre-balanced the night before. At the same time, 4 female mouse were killed by neck detachment, the enlargement of oviduct was disposed of in the sperm solution, the insulin needle was used to open the ampulla side under the microscope, and the cumulus-oocyte complex (COCs) would be released from the ampulla under the action of squeezing or internal pressure. 8˜10 μL of sperm and COCs were taken in the insemination droplet. After 6 h after insemination, the zygotes (with two pronuclei, both male and female) were cleaned and transferred to different treatments of KSOM culture medium, specific groups are as follows:
Control group: the basic development culture medium in vitro of mouse embryos was added to the special small dish for embryo culture, 2 droplets were made, 50 μL of culture medium per droplets, covered with paraffin oil, pre-balanced in an incubator with 37° C., 5% CO2 saturated humidity for more than 6 hours, and the embryos were placed in well-balanced culture droplets, with 25˜35 pieces per droplets;
Treatment group 1: the development culture medium in vitro of mouse embryos containing 50 μmol/L of tributyrin was added to the special dish for embryo culture, 2 droplets were made, 50 μL of culture medium per droplets, covered with paraffin oil, pre-balanced in an incubator with 37° C., 5% CO2 saturated humidity for more than 6 hours, and the embryos were placed in well-balanced culture droplets, with 25˜35 pieces per droplets;
Treatment group 2: the development culture medium in vitro of mouse embryos containing 100 μmol/L of tributyrin was added to the special dish for embryo culture, 2 droplets were made, 50 μL of culture medium per droplets, covered with paraffin oil, pre-balanced in an incubator with 37° C., 5% CO2 saturated humidity for more than 6 hours, and the embryos were placed in well-balanced culture droplets, with 25˜35 pieces per droplets;
Treatment group 3: the development culture medium in vitro of mouse embryos containing 200 μmol/L of tributyrin was added to the special dish for embryo culture, 2 droplets were made, 50 μL of culture medium per droplets, covered with paraffin oil, pre-balanced in an incubator with 37° C., 5% CO2 saturated humidity for more than 6 hours, and the embryos were placed in well-balanced culture droplets, with 25˜35 pieces per droplets;
The above different treatment groups were incubated in an incubator with 37° C., 5% CO2 saturated humidity for 24 h, 48 h, 72 h and 96 h, corresponding to the 2-cell, 4-cell, morula and blastocyst stages of embryonic development, respectively, and the embryonic development was observed.
The rate of cleavage (%)=number of cleavage embryos/number of fertilized eggs with male and female pronuclei×100%
The rate of blastocyst (%)=number of blastocysts/number of cleavage embryos×100%

Assay [4] has as its system mouse embryos. Put plainly: detection of ATP level in mouse embryos. It counts as cell-based. As to conditions: 100 μmol/L tributyrin, 2-cell stage, vs control. On the procedure:
as §1, §2
Referring to the steps of development culture in vitro of example 2, development culture in vitro was carried out on the above two treatment groups; according to the instructions of the ATP detection kit (Biyuntian, S0027), the embryos of the control group and the experimental group at the 2-cell stage were tested for ATP. Add 16 μL of ATP detection lysate to 200 μL centrifuge tube and transfer into 40 pieces 2-cell stage embryos. […] 64 μL of ATP working solution (ATP detection reagent diluent: ATP detection reagent=4:1) was added to the tube, vortex and centrifuged to the bottom of the tube, quickly transferred to a black 96-well plate with a multifunctional microplate reader for detection.

The test system of assay [5] is histone H3K27ac. Kind of assay: detection of histone acetylation level (H3K27ac immunofluorescence). It counts as cell-based, mouse. The note with it: 100 μmol/L tributyrin, 2-cell stage, vs control. As for the experimental part: as §1, §2
Referring to the steps of development culture in vitro of example 2, development culture in vitro was carried out on the above two treatment groups; embryos from the control group and the experimental group at the 2-cell stage were obtained, the histone H3K27ac level was detected by immunofluorescence. The specific methods and steps are as follows:
(1) Mouse embryos fixation and permeabilization: mouse embryos were placed in a washing solution (PBS containing 0.1% Tween-20 and 0.01% Triton X-100) for rapid washing for 1 time, then piped into the fixed permeabilization solution (PBS containing 4% paraformaldehyde and 0.5% Triton) and treated at room temperature for 50 min. […]

Assay [6] deals with GPX4. Put plainly: detection of antioxidant gene expression in mouse embryos (qPCR), GPX4. The note with it: 100 μmol/L tributyrin, 2-cell stage, vs control, RPLP0 internal control. It counts as cell-based. On the procedure:
as §1, §2
(§3) Referring to the steps of development culture in vitro of example 2, development culture in vitro was carried out on the above two treatment groups; embryos from the control group and the experimental group at the 2-cell stage were obtained, the high-purity RNA was extracted according to the instructions of the RNAprep Pure Total RNA Extraction Kit for Micro Samples (Tiangen, DP420). […] (annealed) for 30 s; 40 cycles (PCR amplification); the fluorescent signal was collected at 55° C. extension, the RPLPO gene was used as an internal control, and the expression was calculated using the 2^−ΔΔct formula, wherein, the primer sequences of each gene are shown in Table 2 below: […]

Assay [7] has as its system 5 hmC level in mouse embryonic genome. Put plainly: detection of DNA methylation level (5 hmC immunofluorescence). Format: cell-based. The note with it: 100 μmol/L tributyrin, 2-cell stage, vs control. On the procedure: as §1, §2
Referring to the steps of development culture in vitro of example 2, development culture in vitro was carried out on the above two treatment groups; embryos from the control group and the experimental group at the 2-cell stage were obtained, in order to detect the DNA methylation level in mouse embryos, the cells were first fixed with paraformaldehyde, TritonX-100 enhanced the permeability of the cell membrane to facilitate the binding of antibody antigens. After acidification and base neutralization, the non-specific protein is blocked with 2% BSA, followed by incubation with the corresponding primary antibody and fluorescently labeled secondary antibody. The specific methods and steps are as follows: […]

Assay [8] concerns SOD2. Kind of assay: detection of antioxidant gene expression in mouse embryos (qPCR), SOD2. The note with it: 100 μmol/L tributyrin, 2-cell stage, vs control, RPLP0 internal control. It counts as cell-based. On the procedure:
as §1, §2, §3
For orientation: In qPCR the cycle at which signal appears reflects the starting amount.

Turning to `CCCC(=O)OCC(COC(=O)CCC)OC(=O)CCC` [tributyrin], in assay [1], the “ROS level (average fluorescence intensity of ROS) in mouse embryos” value is listed as “significantly reduced”. Besides, the “mitochondrial membrane potential level (relative fluorescence intensity of JC-1 red/green)” value in assay [2] is given as “significantly improved”. For the same compound, the “The rate of 2-cell” value was 96.58 ± 0.83% in assay [3] (50 μmol/L tributyrin in KSOM), 96.91 ± 0.76% in assay [3] (100 μmol/L tributyrin in KSOM) and 96.63 ± 0.5% in assay [3] (200 μmol/L tributyrin in KSOM). In addition, the “The rate of 4-cell” value came out at 95.57 ± 0.57% in assay [3] (50 μmol/L tributyrin in KSOM), 96.57 ± 0.37% in assay [3] (100 μmol/L tributyrin in KSOM) and 96.46 ± 0.5% in assay [3] (200 μmol/L tributyrin in KSOM). In addition, the “number of cells (microscopic observation, FIG. 1A)” value in assay [3] (treatment group compared to control group) is “increased significantly”. Also, the “ATP level in mouse embryos” value in assay [4] is “significantly increased”. In addition, the “histone H3K27ac level in mouse embryos” value in assay [5] is “significantly increased”. Further, in assay [6], the “expression of antioxidant gene GPX4” value is recorded as “significantly increased”. Further, the “5 hmC level in mouse embryos” value in assay [7] was “significantly increased”. In addition, the “expression of antioxidant gene SOD2” value in assay [8] was “significantly increased”.
